According to patent US11291200B2, “Application of viable cell monitor to cryopreservation of plant cells” (EAST CHINA UNIVERSITY OF SCIENCE AND TECHNOLOGY, priority 2016, dated 2022):

Key:
[1] = test system: suspension cells from Siraitia grosvenorii; assay: Measurement of mitochondrial activity (TTC) after cryopreservation; format: cell-based; conditions: for TTC value score: per-level statistic of Table 1; for TTC value/100 mg of cells: -80° C. 24 h
Protocol: After mixing evenly, performing dark culture at 25° C. for 16 h. After the dark culture, the supernatant is removed by centrifugation and the cells are washed with distilled water three times. Adding with 4 mL of methanol and placing in a 60° C. water bath for 50 min, gently blow twice with a pipette tip until the cells have detached to colourless.

[2] = test system: suspension cells from Siraitia grosvenorii; assay: Cell viability evaluation by viable cell monitor (viable cell capacitance, viability preservation rate after cryopreservation); format: cell-based; conditions: for A1 (viable cell capacitance of the pre-treated cell): before freezing; for A3 (basal capacitance of the cell): cell death totally; for A2 (viable cell capacitance after resuscitation) / Viability preservation rate: -80° C. 24 h
Protocol: Taking a certain number of cells in the logarithmic growth phase for centrifugation (or sedimentation) and adding an equal amount of pre-treatment fluids after removing the supernatant. […] Pre-treated cells are centrifuged. Adding cryoprotectants after removing the supernatant and incubating at 0-4° C. and 110 rpm for 45 min. After incubation, the cells are first cooled at −20° C. for 40 min and then cooled in the −80° C. cryogenic refrigerator. Frozen cells are thawed in a water bath at 39° C., for 2-3 min. […] Mixing evenly the suspension cells and then measuring the capacitance of viable cells with a viable cell monitor. The viable cell capacitance of the pre-treated cell is denoted as A1; the viable cell capacitance after resuscitation is denoted as A2; and the basal capacitance of the cell is denoted as A3 (capacitance when cell death totally). […] The basic capacitance of cells: the cell suspension is boiled in boiling water for 1 h, and then subjected to ultrasonication for 40 min. The capacitance measured is the basic capacitance.

[3] = 0.2 M sucrose as pre-treatment agent, cryoprotectant liquid medium+10% DMSO+10% sucrose, compared with the control without pre-treatment
[4] = 0.2 M sucrose pre-treatment time 1 h, liquid medium+10% DMSO+10% sucrose
[5] = 0.2 M sucrose pre-treatment time 2 h, liquid medium+10% DMSO+10% sucrose
[6] = 0.2 M sucrose pre-treatment time 5 h, liquid medium+10% DMSO+10% sucrose
[7] = 0.2 M sucrose pre-treatment time 9 h, liquid medium+10% DMSO+10% sucrose
[8] = 0.2 M sucrose pre-treatment time 22 h, liquid medium+10% DMSO+10% sucrose
[9] = 0.2 M sucrose pre-treatment time 46 h, liquid medium+10% DMSO+10% sucrose
[10] = pre-treatment agent 0.2M, frozen medium liquid medium+10% DMSO+10% sucrose
[11] = pre-treatment agent 0.35M, frozen medium liquid medium+10% DMSO+10% sucrose
[12] = pre-treatment agent 0.5M, frozen medium liquid medium+10% DMSO+10% sucrose
[13] = 0.2 M sucrose pre-treatment time 1 h
[14] = 0.2 M sucrose pre-treatment time 2 h
[15] = 0.2 M sucrose pre-treatment time 5 h
[16] = 0.2 M sucrose pre-treatment time 9 h
[17] = 0.2 M sucrose pre-treatment time 22 h
[18] = 0.2 M sucrose pre-treatment time 46 h
[19] = Siraitia grosvenorii, 45 min, 5 %
[20] = Siraitia grosvenorii, 45 min, 10 %

For `OC[C@@H](O)[C@@H](O)[C@H](O)[C@@H](O)CO` [sorbitol], the TTC value score ([1]; cryoprotectant level 5%) was 0.652, the TTC value score ([1]; cryoprotectant level 10%) was 0.846 and the “Viability preservation rate score” value ([2]; cryoprotectant level 5%, per-level statistic of Table 1) was 31.20%. For the same compound, the “Viability preservation rate score” value ([2]; cryoprotectant level 10%, per-level statistic of Table 1) was 40.65%.
With `OC[C@H]1O[C@@](CO)(O[C@H]2O[C@H](CO)[C@@H](O)[C@H](O)[C@H]2O)[C@@H](O)[C@@H]1O` [Sucrose, sucrose] the “increase of mitochondrial activity (TTC value)” value [1, 3] was 36.72%, the “TTC value/100 mg of cells” value [1, 4] was 0.195 and the “TTC value/100 mg of cells” value [1, 5] was 0.201. The “TTC value/100 mg of cells” value [1, 6] was 0.225, the “TTC value/100 mg of cells” value [1, 7] was 0.376 and the “TTC value/100 mg of cells” value [1, 8] was 0.319. The “TTC value/100 mg of cells” value [1, 9] was 0.106, the TTC value score ([1]; cryoprotectant level 5%) was 0.506 and the TTC value score ([1]; cryoprotectant level 10%) was 0.847. The “TTC value/100 mg of cells” value [1, 10] was 0.916, the “TTC value/100 mg of cells” value [1, 11] was 0.479 and the “TTC value/100 mg of cells” value [1, 12] was 0.232. For the same compound, the “increase of cell viability preservation rate” value [2, 3] was 29.18%, the “A1 (viable cell capacitance of the pre-treated cell)” value [2, 13] was 62.11 pF/cm and the “A3 (basal capacitance of the cell)” value [2, 13] was 8.41 pF/cm. The “A2 (viable cell capacitance after resuscitation)” value [2, 4] was 14.46 pF/cm, the “A1 (viable cell capacitance of the pre-treated cell)” value [2, 14] was 61.68 pF/cm and the “A3 (basal capacitance of the cell)” value [2, 14] was 8.78 pF/cm. The “A2 (viable cell capacitance after resuscitation)” value [2, 5] was 15.63 pF/cm, the “A1 (viable cell capacitance of the pre-treated cell)” value [2, 15] was 61.19 pF/cm and the “A3 (basal capacitance of the cell)” value [2, 15] was 11.09 pF/cm. For the same compound, the “A2 (viable cell capacitance after resuscitation)” value [2, 6] was 21.21 pF/cm, the “A1 (viable cell capacitance of the pre-treated cell)” value [2, 16] was 58.51 pF/cm and the “A3 (basal capacitance of the cell)” value [2, 16] was 11.3 pF/cm. The “A2 (viable cell capacitance after resuscitation)” value [2, 7] was 25.85 pF/cm, the “A1 (viable cell capacitance of the pre-treated cell)” value [2, 17] was 56.48 pF/cm and the “A3 (basal capacitance of the cell)” value [2, 17] was 10.43 pF/cm. For the same compound, the “A2 (viable cell capacitance after resuscitation)” value [2, 8] was 22.86 pF/cm, the “A1 (viable cell capacitance of the pre-treated cell)” value [2, 18] was 45.92 pF/cm and the “A3 (basal capacitance of the cell)” value [2, 18] was 10.94 pF/cm. For the same compound, the “A2 (viable cell capacitance after resuscitation)” value [2, 9] was 14.60 pF/cm, the “Viability preservation rate score” value [2, 19] was 31.15% and the “Viability preservation rate score” value [2, 20] was 42.98%. The “A1 (viable cell capacitance of the pre-treated cell)” value ([2]; pre-treatment agent 0.2M) was 42.25 pF/cm, the “A3 (basal capacitance of the cell)” value ([2]; pre-treatment agent 0.2M) was 10.00 pF/cm and the “A2 (viable cell capacitance after resuscitation)” value [2, 10] was 26.44 pF/cm. For the same compound, the “A1 (viable cell capacitance of the pre-treated cell)” value ([2]; pre-treatment agent 0.35M) was 30.55 pF/cm, the “A3 (basal capacitance of the cell)” value ([2]; pre-treatment agent 0.35M) was 8.49 pF/cm and the “A2 (viable cell capacitance after resuscitation)” value [2, 11] was 17.01 pF/cm. For the same compound, the “A1 (viable cell capacitance of the pre-treated cell)” value ([2]; pre-treatment agent 0.5M) was 24.62 pF/cm, the “A3 (basal capacitance of the cell)” value ([2]; pre-treatment agent 0.5M) was 6.03 pF/cm and the “A2 (viable cell capacitance after resuscitation)” value [2, 12] was 11.81 pF/cm.
In the case of `OC[C@H]1O[C@H](O[C@H]2O[C@H](CO)[C@@H](O)[C@H](O)[C@H]2O)[C@H](O)[C@@H](O)[C@@H]1O` [Trehalose, trehalose], the “TTC value/100 mg of cells” value [1, 10] was 0.767, the “TTC value/100 mg of cells” value [1, 11] was 0.841 and the “TTC value/100 mg of cells” value [1, 12] was 0.224. The “A1 (viable cell capacitance of the pre-treated cell)” value ([2]; pre-treatment agent 0.2M) was 41.05 pF/cm, the “A3 (basal capacitance of the cell)” value ([2]; pre-treatment agent 0.2M) was 7.77 pF/cm and the “A2 (viable cell capacitance after resuscitation)” value [2, 10] was 23.40 pF/cm. For the same compound, the Viability preservation rate [2, 10] was 46.97%, the “A1 (viable cell capacitance of the pre-treated cell)” value ([2]; pre-treatment agent 0.35M) was 34.06 pF/cm and the “A3 (basal capacitance of the cell)” value ([2]; pre-treatment agent 0.35M) was 7.09 pF/cm. For the same compound, the “A2 (viable cell capacitance after resuscitation)” value [2, 11] was 18.80 pF/cm, the Viability preservation rate [2, 11] was 43.42% and the “A1 (viable cell capacitance of the pre-treated cell)” value ([2]; pre-treatment agent 0.5M) was 21.20 pF/cm. The “A3 (basal capacitance of the cell)” value ([2]; pre-treatment agent 0.5M) was 5.50 pF/cm, the “A2 (viable cell capacitance after resuscitation)” value [2, 12] was 10.65 pF/cm and the Viability preservation rate [2, 12] was 32.80%.
`C[S+](C)[O-]` [DMSO, dimethyl sulfoxide] was tested, and the TTC value score ([1]; cryoprotectant level 5%) was 0.633, the TTC value score ([1]; cryoprotectant level 10%) was 0.792 and the “Viability preservation rate score” value [2, 19] was 35.90%. The “Viability preservation rate score” value [2, 20] was 37.09%.
